Data from EP4635945A1, “CRYSTAL FORM OF PROXIMOD, PREPARATION METHOD THEREFOR, AND USE THEREOF” (Jiankuan (Suzhou) Biotechnology Co., Ltd, priority 2022, dated 2024).
“Also recorded” adds a separate entry of the source.

Tests used:
Assay type in all cases: physicochemical
[1] = Adhesiveness: PE bag adhesive rate; conditions: flipped at 5 rpm, 10 minutes in each direction; hydrochloride
Experimental: The bags were sealed, flipped at a rotational speed of 5 rpm for 10 minutes, and continued to be flipped in a different flipping direction at a fixed rotational speed for 10 minutes. The materials were poured out of the bags, and the materials remaining in the bags were accurately weighed to calculate the adhesive rate.
The adhesive rate was calculated according to the following formula: Adhesive rate = (initialmaterialweight-remainingmaterialweight)/contact surface area. [formula]

[2] = Solid-state stability of crystal forms on storage (XRPD, purity); conditions: for Maximum single impurity after storage / Crystal form after storage / Main purity after storage: 30 days, exposed; for Time the crystal form remains stable: at 60 °C, 92.5% RH, and 45 °C/75% RH
Experimental: The crystal forms of the samples before and after storage were tested by XRPD.

[3] = Mechanical stability: grinding in agate mortar, XRPD; conditions: 50 mg ground with an agate mortar for 5 minutes; hydrochloride
Description: The samples before and after ground were detected by XRPD.

[4] = Hygroscopicity by dynamic vapor sorption (DVS); conditions: for Hygroscopicity description: DVS, 90% RH, hydrochloride
Description: (§1) In the examples of the present application, the instrument used for the X-ray powder diffraction test is the D2 Phaser produced by Bruker. The instrument used for the differential scanning calorimetry test is the differential scanning calorimeter DSC 250 produced by TA Instruments. The instrument used for the thermogravimetric analysis is the thermogravimetric analyzer TGA 55 produced by TA Instruments. The instrument used for the FT-IR test is the Fourier infrared spectrometer ID1-summit produced by Thermo. The instrument used for the dynamic vapor sorption test is the DVS Intrinsic produced by Surface Measurement Systems (SMS). The instrument used for the microscopy is the microscope NJF-120A produced by Suzhou Nanguang Electronic Technology Co., Ltd.

[5] = Compressibility: tableting, hardness and tensile strength; conditions: die with a diameter of 6 mm; for Tensile strength Ts: Ts = 2F/IIDL; for Tensile strength Ts / Hardness: hydrochloride; for Hardness: same pressure; for Experimental phenomena: tableting
Experimental: In this experiment, a die with a diameter of 6 mm was used. The drug substance and the drug substance + excipient were tableted under the same pressure, respectively. After the elasticity of the prepared tablets was restored, the radial crushing force F, diameter D, and thickness L of the tablets were measured. The tensile strength of the tablets was calculated according to the following formula: Ts = 2F/IIDL.

[6] = Microscopic morphology and particle size; conditions: microscopy; for Length/short diameter ratio / Microscopic morphology: hydrochloride
Description: as §1

[7] = Fluidity: angle of repose, bulk and tap density, Hausner ratio; conditions: hydrochloride; for Compression degree: (tap density − bulk density)/tap density; for Bulk density / Tap density: fixed-volume method; for Bulk density: 50 mL; for Tap density: after tapping; for Angle of repose: pouring method with residual cone method; for Hausner ratio: tap density/bulk density
Experimental: This experiment was performed by using a tap density tester according to the fixed-volume method. The specific operations are as follows: The weighed powder, with a volume of 50 mL, was loaded into a graduated cylinder, and the graduated cylinder was secured onto a support. The graduated cylinder was set to be vibrated at 55 ± 5 vibrations per minute for 6-8 minutes. The volume change of the powder was measured in a measuring cup. The ratio of the weight of the powder to the volume (50 mL) before tapping is the bulk density of the powder, and the ratio of the weight of the powder to the volume after tapping is the tapped density of the powder.
The Hausner ratio and the compression degree were converted in the following methods. Hausner ratio = tap density/bulk density [formula] Compression degree = (tapdensity−bulkdensity)/tap density [formula]
This experiment was performed by a pouring method, and the angles of repose of the drug substances of the two crystal forms were measured in combination with a residual cone method to analyze their fluidities. The specific operations are as follows: The powder was poured onto the center of a disk with a specific diameter, and when the material on the slope of the powder pile began to flow freely out along the periphery of the disk, the pouring of the powder was stopped. The height (h) of the cone was measured, and the angle of repose was calculated in combination with the diameter (2r) of the disk, that is, tanQ = h/r.

[8] = Equilibrium solubility in organic solvents at room temperature (HPLC, XRPD of solids); conditions: 24 hours of equilibrium; for Solubility: hydrochloride; for solubility at 24 h: organic solvent or mixture, thermodynamic from solid
Experimental: After 24 hours of equilibrium, the saturated solutions were obtained by filtration. The contents of the samples in the saturated solutions were determined by high-performance liquid chromatography (HPLC) (the filtered solutions were diluted as needed), and the crystal forms of the solids before and after the experiment were characterized by XRPD to check whether phase changes occurred.

For `CCCc1nc(-c2ccc(-c3ccc(CCC(N)(CO)CO)cc3)cc2)co1.Cl` [Crystal form B, 2-amino-2-{2-(4'-(2-propyloxazol-4-yl)-[1,1'-biphenyl]-4-yl)ethyl}-1,3-propanediol hydrochloride], the “PE bag adhesive rate” value [1] was 0.0003 g/cm^2, the “Maximum single impurity after storage” value ([2]; At 40 °C/75% RH) was “Maximum single impurity: 0.04 A%” and the “Crystal form after storage” value ([2]; At 40 °C/75% RH, hydrochloride) was “Crystal form B”. The “Main purity after storage” value ([2]; At 40 °C/75% RH, hydrochloride) was “Main purity: 99.80 A%”, the “Maximum single impurity after storage” value ([2]; At 60 °C) was “Maximum single impurity: 0.04 A%” and the “Crystal form after storage” value ([2]; At 60 °C, hydrochloride) was “Crystal form B”. The “Main purity after storage” value ([2]; At 60 °C, hydrochloride) was “Main purity: 99.79 A%”, the “Maximum single impurity after storage” value ([2]; At 92.5%RH) was “Maximum single impurity: 0.04 A%” and the “Crystal form after storage” value ([2]; At 92.5%RH, hydrochloride) was “Crystal form B”. The “Main purity after storage” value ([2]; At 92.5%RH, hydrochloride) was “Main purity: 99.83 A%”, the “Maximum single impurity before storage” value [2] was “Maximum single impurity: 0.04 A%” and the “Main purity before storage” value ([2]; hydrochloride) was “Main purity: 99.78 A%”. For the same compound, the “Crystal form after storage” value ([2]; In light, hydrochloride) was “Crystal form B”, the “Main purity after storage” value ([2]; In light, hydrochloride) was “Main purity: 99.19 A%” and the “Maximum single impurity after storage” value ([2]; In light, hydrochloride) was “Maximum single impurity: 0.21 A%”. For the same compound, the “Time the crystal form remains stable” value [2] was “at least 30 days”, the “Crystal form after ground (XRPD)” value [3] was “partially crystal transformed into the crystal form A” and the “Weight gain by water absorption (DVS)” value ([4]; 25.6 °C/90% RH) was 0.30%. For the same compound, the Hygroscopicity description [4] was “slightly hygroscopic”, the “Weight gain by water absorption (DVS)” value ([4]; vapor sorption at 25 °C/90% RH) was 0.26% and the “Tensile strength Ts” value [5] was 0.10. The Hardness [5] was 3 N, the Experimental phenomena [5] was “Severe punch sticking” and the Maximum particle size [6] was “less than 100 µm”. The Length/short diameter ratio [6] was 1-6, the Microscopic morphology [6] was “rod-shaped” and the Compression degree [7] was 58.0%. The Bulk density [7] was 0.14 g/mL, the Tap density [7] was 0.33 g/mL and the Angle of repose [7] was 64.95 °. The Hausner ratio [7] was 2.4, the Solubility ([8]; Acetone) was 32 µg/mL and the Solubility ([8]; Ethanol) was 7610 µg/mL. For the same compound, the Solubility ([8]; Ethyl acetate) was “Not detected”.

With `CCCc1nc(-c2ccc(-c3ccc(CCC(N)(CO)CO)cc3)cc2)co1.Cl` [Crystal form A, 2-amino-2-{2-(4'-(2-propyloxazol-4-yl)-[1,1'-biphenyl]-4-yl)ethyl}-1,3-propanediol hydrochloride] the “PE bag adhesive rate” value [1] was 0.0007 g/cm^2, the “Maximum single impurity after storage” value ([2]; At 40 °C/75% RH) was “Maximum single impurity: 0.04 A%” and the “Crystal form after storage” value ([2]; At 40 °C/75% RH, hydrochloride) was “Crystal form A”. For the same compound, the “Main purity after storage” value ([2]; At 40 °C/75% RH, hydrochloride) was “Main purity: 99.82 A%”, the “Maximum single impurity after storage” value ([2]; At 60 °C) was “Maximum single impurity: 0.04 A%” and the “Crystal form after storage” value ([2]; At 60 °C, hydrochloride) was “Crystal form A”. The “Main purity after storage” value ([2]; At 60 °C, hydrochloride) was “Main purity: 99.80 A%”, the “Maximum single impurity after storage” value ([2]; At 92.5%RH) was “Maximum single impurity: 0.04 A%” and the “Crystal form after storage” value ([2]; At 92.5%RH, hydrochloride) was “Crystal form A”. For the same compound, the “Main purity after storage” value ([2]; At 92.5%RH, hydrochloride) was “Main purity: 99.81 A%”, the “Maximum single impurity before storage” value [2] was “Maximum single impurity: 0.04 A%” and the “Main purity before storage” value ([2]; hydrochloride) was “Main purity: 99.79 A%”. For the same compound, the “Crystal form after storage” value ([2]; In light, hydrochloride) was “Crystal form A”, the “Main purity after storage” value ([2]; In light, hydrochloride) was “Main purity: 98.83 A%” and the “Maximum single impurity after storage” value ([2]; In light, hydrochloride) was “Maximum single impurity: 0.43 A%”. For the same compound, the “Time the crystal form remains stable” value [2] was “at least 30 days”, the “Crystal form after ground (XRPD)” value [3] was “remains unchanged” and the “Weight gain by water absorption (DVS)” value ([4]; 24.4 °C/90% RH) was 0.06%. For the same compound, the Hygroscopicity description [4] was “no or almost no hygroscopicity; also recorded: slightly hygroscopic”, the “Weight gain by water absorption (DVS)” value ([4]; vapor sorption at 25 °C/90% RH) was 0.26% and the “Tensile strength Ts” value [5] was 0.17. For the same compound, the Hardness [5] was 5 N, the Experimental phenomena [5] was “Severe punch sticking” and the Length/short diameter ratio [6] was 1-3. For the same compound, the Microscopic morphology [6] was “flaky”, the Compression degree [7] was 33.0% 33.0% and the Bulk density [7] was 0.34 g/mL. For the same compound, the Tap density [7] was 0.50 g/mL, the Angle of repose [7] was 56.25 ° and the Hausner ratio [7] was 1.5. For the same compound, the solubility at 24 h ([8]; acetone) was 43 µg/mL, the solubility at 24 h ([8]; ethanol) was 9990 µg/mL and the solubility at 24 h ([8]; ethyl acetate) was 11 µg/mL.
